The values below come from PubChem BioAssay (NCI).

Some test systems named below: OVCAR-8 ovarian; UO-31 renal; SK-OV-3 ovarian; SF-295 CNS; CAKI-1 renal; NCI-H522 lung; T-47D breast; DU-145 prostate; HCT-15 colon; HOP-92 NSCLC; CCRF-CEM leukemia; SNB-19 CNS; SK-MEL-5 melanoma; OVCAR-4 ovarian; MOLT-4 leukemia; IGROV1 ovarian; MDA-MB-435; SK-MEL-2 melanoma; SR leukemia.
Common to all, as to assay: DTP human tumour cell line panel, 48 h

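Five compound concentrations were applied to cells in 96-well plates for 48 hours; endpoints were derived by simple linear interpolation of the resulting dose-response curve. At the GI50, growth is halved. TGI is the concentration that stops growth completely.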 A value given as a limit tells only on which side of the number the result lay.

What is called TGI is the concentration at which net growth stops. `CCN(CC)CCC1CCCCN1CC(=O)N1c2ccccc2NC(=O)c2ccccc21` (configuration not stated): the TGI with OVCAR-8 ovarian, in the assay on UO-31 renal, in the assay on SK-OV-3 ovarian, in the assay on SF-295 CNS, in the assay on CAKI-1 renal and in the assay with NCI-H522 lung was greater than 100 µM each time. The TGI with T-47D breast, with DU-145 prostate, in the assay on HCT-15 colon, in the assay on HOP-92 NSCLC, in the assay on CCRF-CEM leukemia and in the assay on SNB-19 CNS was greater than 100 µM each time. For the same compound, the TGI in the assay with SK-MEL-5 melanoma, in the assay on OVCAR-4 ovarian, with MOLT-4 leukemia, with IGROV1 ovarian, in the assay on MDA-MB-435 and in the assay with SK-MEL-2 melanoma was greater than 100 µM throughout. In addition, the TGI with SR leukemia is greater than 100 µM.
Take `CC(=O)OC1COC(n2nc(/C=C/c3ccc(Cl)cc3)c(=O)n(/N=C/c3ccccc3)c2=S)C(OC(C)=O)C1OC(C)=O` (configuration not stated): the TGI with OVCAR-8 ovarian, in the assay with UO-31 renal, in the assay with SK-OV-3 ovarian, with SF-295 CNS, in the assay with CAKI-1 renal and in the assay on NCI-H522 lung was greater than 100 µM throughout. Further, the TGI in the assay on T-47D breast, with DU-145 prostate, in the assay with HCT-15 colon, with HOP-92 NSCLC, in the assay with CCRF-CEM leukemia and in the assay with SNB-19 CNS was greater than 100 µM in each case. Also, the TGI in the assay on SK-MEL-5 melanoma, in the assay with OVCAR-4 ovarian, in the assay on MOLT-4 leukemia, with IGROV1 ovarian, in the assay on MDA-MB-435 and in the assay on SK-MEL-2 melanoma was greater than 100 µM throughout. The compound also gave a concentration for total growth inhibition (TGI) with SR leukemia greater than 100 µM.
Regarding `Cc1cnc(/N=c2\sc(C)cn2-c2ncc(C)s2)s1`, the TGI with OVCAR-8 ovarian, in the assay on UO-31 renal, in the assay with SK-OV-3 ovarian, with SF-295 CNS, in the assay with NCI-H522 lung and in the assay on T-47D breast was greater than 100 µM throughout. Moreover, the TGI in the assay with DU-145 prostate, in the assay with HCT-15 colon, in the assay on HOP-92 NSCLC, in the assay on CCRF-CEM leukemia, in the assay on SNB-19 CNS and in the assay on SK-MEL-5 melanoma was greater than 100 µM each time. Besides, the TGI in the assay on OVCAR-4 ovarian, in the assay on MOLT-4 leukemia, in the assay on IGROV1 ovarian, with MDA-MB-435 and with SR leukemia was greater than 100 µM each time.
What is called GI50 is the concentration at which growth is held to half of that of the control. Consider `Cc1ccc2cc3c(ccc4ccccc43)c3c2c1CC3`, for which the TGI with OVCAR-8 ovarian, with UO-31 renal, in the assay on SK-OV-3 ovarian, in the assay with SF-295 CNS, in the assay on CAKI-1 renal and in the assay on NCI-H522 lung was greater than 100 µM each time. Also, the TGI with T-47D breast, in the assay with DU-145 prostate, in the assay on HCT-15 colon, with HOP-92 NSCLC, with CCRF-CEM leukemia and with SNB-19 CNS was greater than 100 µM throughout. Besides, the TGI in the assay on SK-MEL-5 melanoma, in the assay on OVCAR-4 ovarian, in the assay on MOLT-4 leukemia, with IGROV1 ovarian, with MDA-MB-435 and with SK-MEL-2 melanoma was greater than 100 µM in each case. Besides, the TGI in the assay with SR leukemia is greater than 100 µM. For the same compound, the GI50 in the assay on OVCAR-4 ovarian was greater than 100 µM.
For `CCN(CCCN(CC)C(=O)Nc1ccccc1)C(=O)Nc1ccccc1`, the TGI with OVCAR-8 ovarian, in the assay with UO-31 renal, with SK-OV-3 ovarian, in the assay with SF-295 CNS, in the assay on CAKI-1 renal and in the assay on NCI-H522 lung was greater than 100 µM in each case. The TGI with T-47D breast, with DU-145 prostate, with HCT-15 colon, in the assay on HOP-92 NSCLC, with CCRF-CEM leukemia and with SNB-19 CNS was greater than 100 µM throughout. The TGI with SK-MEL-5 melanoma, in the assay with OVCAR-4 ovarian, in the assay with MOLT-4 leukemia, with IGROV1 ovarian, with MDA-MB-435 and in the assay with SK-MEL-2 melanoma was greater than 100 µM in each case. In addition, the concentration for total growth inhibition (TGI) with SR leukemia was greater than 100 µM.
For the compound `CCCc1c(O)c(=O)c2c(OC)cc(OC)c3c4c(OC)cc(OC)c5c(=O)c(O)c(CCC)c(c1c23)c54`, the TGI worked out at 3.38 µM in the assay on OVCAR-8 ovarian; 3.35 µM in the assay on UO-31 renal; 2.96 µM in the assay on SK-OV-3 ovarian; 12.2 µM in the assay on SF-295 CNS; 2.32 µM with CAKI-1 renal; 1.15 µM in the assay on NCI-H522 lung. The TGI with T-47D breast came to 5.73 µM; in the assay on DU-145 prostate, 3.73 µM; in the assay with HCT-15 colon it was 11.6 µM; in the assay on HOP-92 NSCLC, 2.55 µM; with CCRF-CEM leukemia, 0.582 µM; with SNB-19 CNS, 12.7 µM. Also, the TGI with SK-MEL-5 melanoma is 1.91 µM; in the assay on OVCAR-4 ovarian, 14.1 µM; in the assay on MOLT-4 leukemia, 1.23 µM; with IGROV1 ovarian, 3.97 µM; in the assay with MDA-MB-435 it was 10.4 µM; with SK-MEL-2 melanoma, 8.71 µM. Further, the TGI in the assay with SR leukemia was determined as 0.463 µM.
Consider `O=C(N/N=C/c1ccc([N+](=O)[O-])cc1)c1cccc2nc3ccccc3nc12`, for which the TGI with OVCAR-8 ovarian, with UO-31 renal, in the assay on SK-OV-3 ovarian, in the assay with SF-295 CNS, with CAKI-1 renal and in the assay on NCI-H522 lung was greater than 100 µM throughout. For the same compound, the total growth inhibition concentration (TGI) is greater than 100 µM in the assay on T-47D breast; greater than 100 µM in the assay with DU-145 prostate; greater than 100 µM in the assay on HCT-15 colon; greater than 87.3 µM in the assay with HOP-92 NSCLC; greater than 100 µM in the assay with CCRF-CEM leukemia; greater than 100 µM with SNB-19 CNS. Further, the TGI in the assay with SK-MEL-5 melanoma, in the assay with OVCAR-4 ovarian, in the assay on MOLT-4 leukemia, in the assay with IGROV1 ovarian, in the assay with MDA-MB-435 and in the assay with SK-MEL-2 melanoma was greater than 100 µM each time. In the assay with SR leukemia, the TGI is greater than 64.7 µM.
